Measured values taken from patent US6358694B1, “Methods of identifying modulators of a prostaglandin receptor” (Merck Frosst Canada & Co., priority 1993, dated 2002).

Key:
[1] = target: T1, cloned human FP receptor (Homo sapiens, UniProt P43088); assay: [3H]PGF2α competition binding assay with membranes of pcDNAIamp-hFP transfected COS-M6 cells; conditions: for rank order of potency for competition of [3H]PGF2α specific binding: transfected COS-M6 membranes, 0.03 nM-10 μM competitor
T1 construct: A long open reading frame (1077 bp) was determined which would result in a 359 amino acid polypeptide; expressed in transfected cells; host or cells: COS-M6 cells, transient DEAE-dextran transfection with pcDNAIamp-hFP; 100,000 x g membrane fraction
Description: The recently cloned human prostaglandin F2a (FP) receptor was subcloned into the pcDNA lamp plasmid (Invitrogen) and transfected into COS-M6 cells using the DEAE-dextran method. The cells were maintained in culture for 72 h, then harvested and membranes prepared by differential centrifugation (1000×g for 10 min, then 100,000×g for 30 min) following lysis of the cells by nitrogen cavitation. […] Incubations were conducted for 1 h at room temperature prior to separation of the bound and free radioligand by rapid filtration through Whatman GF/B filters presoaked at 4° C. in washing buffer ([…] (pH 6.0) containing 0.01% bovine serum albumin).

[2] = target: T2, FP receptor (Homo sapiens, UniProt P43088); assay: electrophysiological assay (Ca2+-dependent Cl- current) in pcDNAIamp-FP-injected Xenopus oocytes; type: cell-based; conditions: perfusion of 10 nM, oocyte voltage clamped at -60 mV
T2 construct: A long open reading frame (1077 bp) was determined which would result in a 359 amino acid polypeptide; expressed in transfected cells; host or cells: Xenopus laevis oocytes (stage 5-6), nuclear injection of 1-5 ng pcDNAIamp-FP plasmid
Description: (§1) Ooctyes were taken from adult females of Xenopus laevis using standard surgical procedure (Colman, A., 1984 In: Transcription and Translation—A Practical Approach, IRL Press). To remove follicle cells, oocytes were treated for 2-3 h with freshly made collagenase (2 mg/ml, type 2, Worthington Biochemical Corp., Freehold, N.J.) in Ca^2+-free ND96 solution (ND96 in mM: NaCl 96, KCl 2, MgCl2 1, HEPES 5, Na-pyruvate 2.5, theophylline 0.5, gentamicin […], +1.8 CaCl2, pH 7.6). Defolliculated stage 5-6 oocytes were selected and maintained in ND96 solution. Ooctye nuclei were injected with 1-5 ng of pcDNAIamp-PP and then incubated at 18° C. for 48 h before challenge with agonist. Functional activity was determined by measurement of either agonist-induced Ca^2+-dependent Cl^− current or light emission in oocytes injected with the Ca^2+-specific photoprotein aequorin (J. Blinks, Friday Harbor Photoproteins, Wash.), (Giladi and Spindel 1991 Biotechniques, 10, pp 744-747). […] Ligand-containing solution was perfused and the current response was recorded. For the luminometric assay, aequorin-loaded oocytes (100 ng/oocyte) were placed individually in cuvettes containing 0.4 ml ND96 and the light emission provoked by ligand addition was recorded using a Bio-Orbit 1251 luminometer (Fisher Sci. Ltd.).

[3] = target: T2, FP receptor; assay: aequorin luminescence assay in pcDNAIamp-FP-injected Xenopus oocytes; type: cell-based; conditions: aequorin-loaded oocytes, compared to PGE2
Description: as §1

T1 sequence (P43088 whole entry): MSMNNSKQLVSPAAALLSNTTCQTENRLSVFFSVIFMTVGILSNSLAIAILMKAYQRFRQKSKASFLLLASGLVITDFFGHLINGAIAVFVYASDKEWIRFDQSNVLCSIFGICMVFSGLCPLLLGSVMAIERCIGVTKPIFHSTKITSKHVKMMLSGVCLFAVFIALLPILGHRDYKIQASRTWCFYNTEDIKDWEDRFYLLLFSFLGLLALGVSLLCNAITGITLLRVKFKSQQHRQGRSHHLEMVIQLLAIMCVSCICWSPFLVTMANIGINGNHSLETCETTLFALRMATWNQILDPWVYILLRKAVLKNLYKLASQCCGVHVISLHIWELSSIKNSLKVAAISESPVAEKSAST
T2 sequence (P43088 whole entry, the tested form may be a part): as the sequence (P43088 whole entry) above

IC50 [1] | agonist-induced Ca2+-dependent Cl- current response [2] | agonist potency from dose-response of aequorin light emission [3] | SMILES | rank order of potency for competition of [3H]PGF2α specific binding [1]
3.5 nM | prominent current responses | more potent agonists | O=C(O)CCC/C=C\C[C@@H]1[C@@H](/C=C/[C@@H](O)COc2cccc(C(F)(F)F)c2)[C@H](O)C[C@@H]1O (racemic) [fluprostenol] | PGF2α=fluprostenol>PGD2>>PGE2≈U46619>iloprost
 |  |  | CCCCC[C@H](O)/C=C/[C@H]1C(=O)C[C@H](O)[C@@H]1C/C=C\CCCC(=O)O [PGD2] | PGF2α=fluprostenol>PGD2>>PGE2≈U46619>iloprost
 |  |  | CCCCC[C@H](O)/C=C/[C@H]1[C@H](O)CC(=O)[C@@H]1C/C=C\CCCC(=O)O [PGE2] | PGF2α=fluprostenol>PGD2>>PGE2≈U46619>iloprost
 |  |  | CCCCC[C@H](O)/C=C/[C@@H]1[C@@H](C/C=C\CCCC(=O)O)[C@H]2CO[C@@H]1C2 [U46619] | PGF2α=fluprostenol>PGD2>>PGE2≈U46619>iloprost
 |  |  | CC#CCC(C)[C@H](O)/C=C/[C@@H]1[C@H]2C/C(=C/CCCC(=O)O)C[C@H]2C[C@H]1O (some centres unmarked) [iloprost] | PGF2α=fluprostenol>PGD2>>PGE2≈U46619>iloprost
